Target: recombinant human DPP1 (rhDPP1) (Homo sapiens (Human), UniProt P53634)
Assay: Test A1: Fluorescence assay for recombinant human (RH) DPP1
Assay type: biochemical
Settings: Test A1 (Examples 1-35), rhDPP1 ~50 pM, 100 μM H-Gly-Arg-AMC, pH 5.0, 22° C.
Procedure: Test A1: Fluorescence Assay for Recombinant Human (RH) DPP1
The activity of DPP1 was determined by measuring the enzymatic release of aminomethyl coumarin (AMC) from the peptide substrate (H-Gly-Arg-AMC), which leads to an increase in fluorescence intensity at λex=350 nm and λem=450 nm. The assay was carried out in black 384 well plates in a final volume of 50 μl at 22° C. The assay conditions contained the following: 25 mM piperazine buffer pH 5.0; 50 mM NaCl, 5 mM DTT; 0.01% (v/v) Triton X-100; 100 μM H-Gly-Arg-AMC and rhDPP1 (˜50 pM). […] Routinely, inhibitors were pre-incubated with rhDPP1 for 30-60 min prior to the addition of the peptide substrate to start the reaction for a further 60 min at 22° C.

Sequence of recombinant human DPP1 (rhDPP1) (P53634 231-394): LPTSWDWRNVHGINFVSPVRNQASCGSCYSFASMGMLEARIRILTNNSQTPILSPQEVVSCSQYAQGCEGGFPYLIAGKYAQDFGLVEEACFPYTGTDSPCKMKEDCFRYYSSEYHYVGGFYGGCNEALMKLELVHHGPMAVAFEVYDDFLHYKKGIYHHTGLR
Sequence of recombinant human DPP1 (rhDPP1) (P53634 25-134): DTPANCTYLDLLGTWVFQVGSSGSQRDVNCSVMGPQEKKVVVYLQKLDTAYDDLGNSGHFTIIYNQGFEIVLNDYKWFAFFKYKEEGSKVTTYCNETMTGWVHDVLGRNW
Sequence of recombinant human DPP1 (rhDPP1) (P53634 395-463): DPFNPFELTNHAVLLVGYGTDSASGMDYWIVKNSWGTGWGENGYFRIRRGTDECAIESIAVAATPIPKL

| SMILES | DPP1 activity, pIC50 | IC50 (read-out: DPP1 activity, pIC50 (converted)) |
| --- | --- | --- |
| N#Cc1ccc(-c2ccc(C[C@@H](C#N)NC(=O)[C@@H]3CNCCCO3)cc2)s1 [Example 22, (2S)-N-{(1S)-1-Cyano-2-[4-(5-cyanothiophen-2-yl)phenyl]ethyl}-1,4-oxazepane-2-carboxamide] | 7.71 |  |
| N#C[C@H](Cc1ccc(-c2ccc3oc(=O)n(CC(F)(F)F)c3c2)cc1)NC(=O)[C@@H]1CNCCCO1 [Example 28, (2S)-N-[(1S)-1-Cyano-2-{4-[2-oxo-3-(2,2,2-trifluoroethyl)-2,3-dihydro-1,3-benzoxazol-5-yl]phenyl}ethyl]-1,4-oxazepane-2-carboxamide] | 8.09 |  |
| N#Cc1ccc(-c2ccc(C[C@@H](C#N)NC(=O)C3CNCCCO3)cc2)cc1 (mixture of isomers) [Example 34, Diastereomeric mixture of (2S)-N-[(1S)-1-cyano-2-(4′-cyanobiphenyl-4-yl)ethyl]-1,4-oxazepane-2-carboxamide and (2R)—N-[(1S)-1-cyano-2-(4′-cyanobiphenyl-4-yl)ethyl]-1,4-oxazepane-2-carboxamide] |  | 60.3 nM |
| N#C[C@H](Cc1ccc(-c2ccc(S(=O)(=O)N3CCC3)cc2)cc1)NC(=O)[C@@H]1CNCCCO1 [Example 31, (2S)-N-{(1S)-2-[4′-(Azetidin-1-ylsulfonyl)biphenyl-4-yl]-1-cyanoethyl}-1,4-oxazepane-2-carboxamide] | 7.67 |  |
| N#C[C@H](Cc1ccc(-c2ccc3scnc3c2)cc1)NC(=O)[C@@H]1CNCCCO1 [Example 33, (2S)-N-{(1S)-2-[4-(1,3-Benzothiazol-5-yl)phenyl]-1-cyanoethyl}-1,4-oxazepane-2-carboxamide] | 7.21 |  |
| CCn1c(=O)oc2c(C)cc(-c3ccc(C[C@@H](C#N)NC(=O)[C@@H]4CNCCCO4)cc3)cc21 [Example 10, (2S)-N-{(1S)-1-Cyano-2-[4-(3-ethyl-7-methyl-2-oxo-2,3-dihydro-1,3-benzoxazol-5-yl)phenyl]ethyl}-1,4-oxazepane-2-carboxamide] | 7.67 |  |
| N#Cc1ccc(-c2ccc(C[C@@H](C#N)NC(=O)[C@@H]3CNCCCO3)cc2)cn1 [Example 8, (2S)-N-{(1S)-1-Cyano-2-[4-(6-cyanopyridin-3-yl)phenyl]ethyl}-1,4-oxazepane-2-carboxamide] | 7.06 |  |
| N#C[C@H](Cc1ccc(-c2ccc(C(F)(F)F)cc2)cc1)NC(=O)[C@@H]1CNCCCO1 [Example 6, (2S)-N-{(1S)-1-Cyano-2-[4′-(trifluoromethyl)biphenyl-4-yl]ethyl}-1,4-oxazepane-2-carboxamide] | 7.44 |  |
| N#C[C@H](Cc1ccc(-c2ccc3oc(=O)n(CC4CCOCC4)c3c2)cc1)NC(=O)[C@@H]1CNCCCO1 [Example 25, (2S)-N-[(1S)-1-Cyano-2-{4-[2-oxo-3-(tetrahydro-2H-pyran-4-ylmethyl)-2,3-dihydro-1,3-benzoxazol-5-yl]phenyl}ethyl]-1,4-oxazepane-2-carboxamide] | 7.97 |  |
| Cn1c(=O)oc2c(F)cc(-c3ccc(C[C@@H](C#N)NC(=O)[C@@H]4CNCCCO4)cc3)cc21 [Example 15, (2S)-N-{(1S)-1-Cyano-2-[4-(7-fluoro-3-methyl-2-oxo-2,3-dihydro-1,3-benzoxazol-5-yl)phenyl]ethyl}-1,4-oxazepane-2-carboxamide] | 8.29 |  |
| Cn1c(=O)oc2c(Cl)cc(-c3ccc(C[C@@H](C#N)NC(=O)[C@@H]4CNCCCO4)cc3)cc21 [Example 26, (2S)-N-{(1S)-2-[4-(7-Chloro-3-methyl-2-oxo-2,3-dihydro-1,3-benzoxazol-5-yl)phenyl]-1-cyanoethyl}-1,4-oxazepane-2-carboxamide] | 7.87 |  |
| N#C[C@H](Cc1ccc(-c2cc(F)c3oc(=O)n(CC(F)F)c3c2)cc1)NC(=O)[C@@H]1CNCCCO1 [Example 12, (2S)-N-[(1S)-1-Cyano-2-{4-[3-(2,2-difluoroethyl)-7-fluoro-2-oxo-2,3-dihydro-1,3-benzoxazol-5-yl]phenyl}ethyl]-1,4-oxazepane-2-carboxamide] | 8.0 |  |

Further lines, results first:

| DPP1 activity, pIC50 | IC50 (read-out: DPP1 activity, pIC50 (converted)) | SMILES |
| --- | --- | --- |
| 7.9 |  | CN1C(=O)COc2ccc(-c3ccc(C[C@@H](C#N)NC(=O)[C@@H]4CNCCCO4)cc3)cc21 [Example 20, (2S)-N-{(1S)-1-Cyano-2-[4-(4-methyl-3-oxo-3,4-dihydro-2H-1,4-benzoxazin-6-yl)phenyl]ethyl}-1,4-oxazepane-2-carboxamide] |
| 7.16 |  | N#C[C@H](Cc1ccc(-c2ccc(F)c(F)c2)cc1)NC(=O)[C@@H]1CNCCCO1 [Example 7, (2S)-N-[(1S)-1-Cyano-2-(3′,4′-difluorobiphenyl-4-yl)ethyl]-1,4-oxazepane-2-carboxamide] |
| 7.86 |  | Cn1c(=O)ccc2ccc(-c3ccc(C[C@@H](C#N)NC(=O)[C@@H]4CNCCCO4)cc3)cc21 [Example 24, (2S)-N-{(1S)-1-Cyano-2-[4-(1-methyl-2-oxo-1,2-dihydroquinolin-7-yl)phenyl]ethyl}-1,4-oxazepane-2-carboxamide] |
| 8.62 |  | Cn1c(=O)sc2ccc(-c3ccc(C[C@@H](C#N)NC(=O)[C@@H]4CNCCCO4)cc3)cc21 [Example 29, (2S)-N-{(1S)-1-Cyano-2-[4-(3-methyl-2-oxo-2,3-dihydro-1,3-benzothiazol-5-yl)phenyl]ethyl}-1,4-oxazepane-2-carboxamide] |
| 8.18 |  | N#C[C@H](Cc1ccc(-c2ccc3oc(=O)n(CC(F)F)c3c2)cc1)NC(=O)[C@@H]1CNCCCO1 [Example 27, (2S)-N-[(1S)-1-Cyano-2-{4-[3-(2,2-difluoroethyl)-2-oxo-2,3-dihydro-1,3-benzoxazol-5-yl]phenyl}ethyl]-1,4-oxazepane-2-carboxamide] |
| 8.2 |  | N#C[C@H](Cc1ccc(-c2ccc3oc(=O)n(CC4CC4)c3c2)cc1)NC(=O)[C@@H]1CNCCCO1 [Example 17, (2S)-N-[(1S)-1-Cyano-2-{4-[3-(cyclopropylmethyl)-2-oxo-2,3-dihydro-1,3-benzoxazol-5-yl]phenyl}ethyl]-1,4-oxazepane-2-carboxamide] |
| 7.05 |  | CC(C)(O)Cn1c(=O)oc2ccc(-c3ccc(C[C@@H](C#N)NC(=O)[C@@H]4CNCCCO4)cc3)cc21 [Example 11, (2S)-N-[(1S)-1-Cyano-2-{4-[3-(2-hydroxy-2-methylpropyl)-2-oxo-2,3-dihydro-1,3-benzoxazol-5-yl]phenyl}ethyl]-1,4-oxazepane-2-carboxamide] |
| 8.09 |  | COCCn1c(=O)oc2ccc(-c3ccc(C[C@@H](C#N)NC(=O)[C@@H]4CNCCCO4)cc3)cc21 [Example 21, (2S)-N-[(1S)-1-Cyano-2-{4-[3-(2-methoxyethyl)-2-oxo-2,3-dihydro-1,3-benzoxazol-5-yl]phenyl}ethyl]-1,4-oxazepane-2-carboxamide] |
| 7.78 |  | CN1C(=O)C(F)(F)c2ccc(-c3ccc(C[C@@H](C#N)NC(=O)[C@@H]4CNCCCO4)cc3)cc21 [Example 14, (2S)-N-{(1S)-1-Cyano-2-[4-(3,3-difluoro-1-methyl-2-oxo-2,3-dihydro-1H-indol-6-yl)phenyl]ethyl}-1,4-oxazepane-2-carboxamide] |
| 7.89 |  | CN1C(=O)CSc2ccc(-c3ccc(C[C@@H](C#N)NC(=O)[C@@H]4CNCCCO4)cc3)cc21 [Example 9, (2S)-N-{(1S)-1-Cyano-2-[4-(4-methyl-3-oxo-3,4-dihydro-2H-1,4-benzothiazin-6-yl)phenyl]ethyl}-1,4-oxazepane-2-carboxamide] |
| 7.79 |  | Cc1noc2ccc(-c3ccc(C[C@@H](C#N)NC(=O)[C@@H]4CNCCCO4)cc3)cc12 [Example 5, (2S)-N-{(1S)-1-Cyano-2-[4-(3-methyl-1,2-benzoxazol-5-yl)phenyl]ethyl}-1,4-oxazepane-2-carboxamide] |
| 8.5 |  | COCCn1c(=O)sc2ccc(-c3ccc(C[C@@H](C#N)NC(=O)[C@@H]4CNCCCO4)cc3)cc21 [Example 18, (2S)-N-[(1S)-1-Cyano-2-{4-[3-(2-methoxyethyl)-2-oxo-2,3-dihydro-1,3-benzothiazol-5-yl]phenyl}ethyl]-1,4-oxazepane-2-carboxamide] |
| 7.37 |  | N#C[C@H](Cc1ccc(-c2ccc(F)cc2)cc1)NC(=O)[C@@H]1CNCCCO1 [Example 32, (2S)-N-[(1S)-1-Cyano-2-(4′-fluorobiphenyl-4-yl)ethyl]-1,4-oxazepane-2-carboxamide] |

Source: patent US10287258B2, “Certain (2S)-N-[(1S)-1-cyano-2-phenylethyl]-1,4-oxazepane-2-carboxamides as dipeptidyl peptidase 1 inhibitors” (AstraZeneca AB, priority 2014, dated 2019)
